From patent US20180110754A1, “CENICRIVIROC FOR THE TREATMENT OF FIBROSIS” (Tobira Therapeutics, Inc., priority 2015, published 2018)

Tests used:
[1] = test system: RANTES-induced Ca2+ mobilization; experiment: RANTES-induced Ca2+ mobilization; type: cell-based
MCP-1 = experiment: Study 201: MCP-1, hs-CRP and IL-6 levels; type: in vivo, human
Method: Participants were required to be antiretroviral treatment-experienced, CCR5 antagonist-naive, with HIV-1 RNA levels of at least 5000 copies/mL and CD4+ cell counts of at least 250 cells/mm^3 was performed.
Exploratory assessment of changes in MCP-1 (a ligand of CCR2, which is a chemokine co-receptor expressed on pro-inflammatory monocytes, also known as CCL2), hs-CRP, and IL-6 were performed and significant dose-dependent increases in MCP-1 were observed (Table 23).

[2] = Study 202: fasting metabolic laboratory parameters; type: in vivo
Description: All abnormalities in total cholesterol, LDL cholesterol, triglycerides, or glucose were Grade 1 or Grade 2.
Mean baseline values and changes from baseline in HbA1c, HOMA-IR, fasting LDL, fasting HDL, fasting total cholesterol, fasting total cholesterol/HDL ratio, and fasting triglycerides are shown in Table 36.

[3] = test system: thioacetamide (TAA)-induced hepatic fibrosis; experiment: Rat model of thioacetamide-induced liver fibrosis and cirrhosis; type: in vivo, Sprague-Dawley rats; conditions: for Reduction of fibrosis (collagen morphometry): weeks 0-8
Method: Fibrosis was induced in male Sprague-Dawley rats by intraperitoneal administration of TAA 150 mg/kg 3 times/week for 8 weeks. […] Biochemical, gene expression and histologic evaluations of the liver were conducted.

[4] = test system: CC14-induced acute liver injury; experiment: CC14-induced acute liver injury in mice; type: in vivo, C57BL/6J mice; conditions: CVC 100 mg/kg oral, 36h after CC14; vehicle 5.49%±0.49
Method: Liver injury and immune cell phenotypes were analyzed. For mechanistic studies, monocyte-derived macrophage subsets and resident macrophages (Kupffer cells) were sorted by FACS from injured livers and subjected to array-based Nanostring gene expression analysis.

[5] = All CVC (N = 115), EFV (N = 28), through Week 48
[6] = CVC 100 mg (N = 58), through Week 48
[7] = CVC 200 mg (N = 57), through Week 48

## CCCCOCCOc1ccc(-c2ccc3c(c2)/C=C(/C(=O)Nc2ccc([S@@+]([O-])Cc4cncn4CCC)cc2)CCCN3CC(C)C)cc1 [CVC, (S)-8-[4-(2-Butoxyethoxy)phenyl]-1-isobutyl-N-(4-{[(1-propyl-1H-imidazol-5-yl)methyl]sulfinyl}phenyl)-1,2,3,4-tetrahydro-1-benzazocine-5-carboxamide]
[1]
  Effect on RANTES-induced Ca2+ mobilization: blocked
MCP-1; 10-day study, overall
  Effect on hs-CRP or IL-6 levels: no effect
MCP-1; CVC 25 mg
  MCP-1 Baseline, Mean: 20.0 pg/mL
  MCP-1 Baseline, Median: 16.0 pg/mL
  MCP-1 Baseline, Range: 7 to 44 pg/mL
  MCP-1 Change from Baseline to Day 10, Median: +25.0 pg/mL
  MCP-1 Day 10, Mean: 75.3 pg/mL
  MCP-1 Day 10, Median: 39.0 pg/mL
  MCP-1 Day 10, Range: 10 to 287 pg/mL
MCP-1; CVC 50 mg
  MCP-1 Baseline, Mean: 12.6 pg/mL
  MCP-1 Baseline, Median: 6.0 pg/mL
  MCP-1 Baseline, Range: 5 to 37 pg/mL
  MCP-1 Change from Baseline to Day 10, Median: +56.0 pg/mL
  MCP-1 Day 10, Mean: 101.3 pg/mL
  MCP-1 Day 10, Median: 65.0 pg/mL
  MCP-1 Day 10, Range: 21 to 266 pg/mL
MCP-1; CVC 75 mg
  MCP-1 Baseline, Mean: 26.6 pg/mL
  MCP-1 Baseline, Median: 8.0 pg/mL
  MCP-1 Baseline, Range: 5 to 92 pg/mL
  MCP-1 Change from Baseline to Day 10, Median: +36.0 pg/mL
  MCP-1 Day 10, Mean: 59.1 pg/mL
  MCP-1 Day 10, Median: 43.5 pg/mL
  MCP-1 Day 10, Range: 20 to 128 pg/mL
MCP-1; CVC 150 mg
  MCP-1 Baseline, Mean: 31.6 pg/mL
  MCP-1 Baseline, Median: 19.5 pg/mL
  MCP-1 Baseline, Range: 8 to 82 pg/mL
  MCP-1 Change from Baseline to Day 10, Median: +322.0 pg/mL
  MCP-1 Day 10, Mean: 372.0 pg/mL
  MCP-1 Day 10, Median: 368.0 pg/mL
  MCP-1 Day 10, Range: 79 to 605 pg/mL
[2]; [5]
  Any graded (Grade 1-4) fasting laboratory abnormality, n subjects: 16
  Fasting LDL cholesterol abnormality, any grade, n subjects: 6
  Fasting LDL cholesterol, worst Grade 1, n subjects: 3
  Fasting LDL cholesterol, worst Grade 2, n subjects: 3
  Fasting LDL cholesterol, worst Grade 3, n subjects: 0
  Fasting LDL cholesterol, worst Grade 4, n subjects: 0
  Fasting glucose (serum, high) abnormality, any grade, n subjects: 5
  Fasting glucose (serum, high), worst Grade 1, n subjects: 3
  Fasting glucose (serum, high), worst Grade 2, n subjects: 2
  Fasting glucose (serum, high), worst Grade 3, n subjects: 0
  Fasting glucose (serum, high), worst Grade 4, n subjects: 0
  Fasting laboratory abnormality, worst Grade 1, n subjects: 9
  Fasting laboratory abnormality, worst Grade 2, n subjects: 7
  Fasting laboratory abnormality, worst Grade 3, n subjects: 0
  Fasting laboratory abnormality, worst Grade 4, n subjects: 0
  Fasting total cholesterol abnormality, any grade, n subjects: 8
  Fasting total cholesterol, worst Grade 1, n subjects: 5
  Fasting total cholesterol, worst Grade 2, n subjects: 3
  Fasting total cholesterol, worst Grade 3, n subjects: 0
  Fasting total cholesterol, worst Grade 4, n subjects: 0
  Fasting triglycerides abnormality, any grade, n subjects: 1
  Fasting triglycerides, worst Grade 1, n subjects: 0
  Fasting triglycerides, worst Grade 2, n subjects: 1
  Fasting triglycerides, worst Grade 3, n subjects: 0
  Fasting triglycerides, worst Grade 4, n subjects: 0
[2]; [6]
  Any graded (Grade 1-4) fasting laboratory abnormality, n subjects: 4 (7%)
  Fasting LDL cholesterol abnormality, any grade, n subjects: 2 (3%)
  Fasting LDL cholesterol, worst Grade 1, n subjects: 1 (2%)
  Fasting LDL cholesterol, worst Grade 2, n subjects: 1 (2%)
  Fasting LDL cholesterol, worst Grade 3, n subjects: 0
  Fasting LDL cholesterol, worst Grade 4, n subjects: 0
  Fasting glucose (serum, high) abnormality, any grade, n subjects: 0
  Fasting glucose (serum, high), worst Grade 1, n subjects: 0
  Fasting glucose (serum, high), worst Grade 2, n subjects: 0
  Fasting glucose (serum, high), worst Grade 3, n subjects: 0
  Fasting glucose (serum, high), worst Grade 4, n subjects: 0
  Fasting laboratory abnormality, worst Grade 1, n subjects: 3 (5%)
  Fasting laboratory abnormality, worst Grade 2, n subjects: 1 (2%)
  Fasting laboratory abnormality, worst Grade 3, n subjects: 0
  Fasting laboratory abnormality, worst Grade 4, n subjects: 0
  Fasting total cholesterol abnormality, any grade, n subjects: 3 (5%)
  Fasting total cholesterol, worst Grade 1, n subjects: 3 (5%)
  Fasting total cholesterol, worst Grade 2, n subjects: 0
  Fasting total cholesterol, worst Grade 3, n subjects: 0
  Fasting total cholesterol, worst Grade 4, n subjects: 0
  Fasting triglycerides abnormality, any grade, n subjects: 0
  Fasting triglycerides, worst Grade 1, n subjects: 0
  Fasting triglycerides, worst Grade 2, n subjects: 0
  Fasting triglycerides, worst Grade 3, n subjects: 0
  Fasting triglycerides, worst Grade 4, n subjects: 0
[2]; [7]
  Any graded (Grade 1-4) fasting laboratory abnormality, n subjects: 12
  Fasting LDL cholesterol abnormality, any grade, n subjects: 4
  Fasting LDL cholesterol, worst Grade 1, n subjects: 2
  Fasting LDL cholesterol, worst Grade 2, n subjects: 2
  Fasting LDL cholesterol, worst Grade 3, n subjects: 0
  Fasting LDL cholesterol, worst Grade 4, n subjects: 0
  Fasting glucose (serum, high) abnormality, any grade, n subjects: 5
  Fasting glucose (serum, high), worst Grade 1, n subjects: 3
  Fasting glucose (serum, high), worst Grade 2, n subjects: 2
  Fasting glucose (serum, high), worst Grade 3, n subjects: 0
  Fasting glucose (serum, high), worst Grade 4, n subjects: 0
  Fasting laboratory abnormality, worst Grade 1, n subjects: 6
  Fasting laboratory abnormality, worst Grade 2, n subjects: 6
  Fasting laboratory abnormality, worst Grade 3, n subjects: 0
  Fasting laboratory abnormality, worst Grade 4, n subjects: 0
  Fasting total cholesterol abnormality, any grade, n subjects: 5
  Fasting total cholesterol, worst Grade 1, n subjects: 2
  Fasting total cholesterol, worst Grade 2, n subjects: 3
  Fasting total cholesterol, worst Grade 3, n subjects: 0
  Fasting total cholesterol, worst Grade 4, n subjects: 0
  Fasting triglycerides abnormality, any grade, n subjects: 1
  Fasting triglycerides, worst Grade 1, n subjects: 0
  Fasting triglycerides, worst Grade 2, n subjects: 1
  Fasting triglycerides, worst Grade 3, n subjects: 0
  Fasting triglycerides, worst Grade 4, n subjects: 0
[2]; Week 4, All CVC, EFV
  Fasting HDL, mean change from baseline: -2.92 mg/dL
  Fasting LDL, mean change from baseline: -9.72 mg/dL
  Fasting total cholesterol, mean change from baseline: -14 mg/dL
  Fasting triglycerides, mean change from baseline: -5 mg/dL
  HOMA-IR, mean change from baseline: −0.30
  HbA1c, mean change from baseline: −0.03 % Hb
[2]; Week 4, CVC 100 mg
  Fasting HDL, mean change from baseline: -3.98 mg/dL
  Fasting LDL, mean change from baseline: -10.90 mg/dL
  Fasting total cholesterol, mean change from baseline: -16 mg/dL
  Fasting triglycerides, mean change from baseline: -8 mg/dL
  HOMA-IR, mean change from baseline: 0.11
  HbA1c, mean change from baseline: 0.01 % Hb
[2]; Week 4, CVC 200 mg
  Fasting HDL, mean change from baseline: -1.84 mg/dL
  Fasting LDL, mean change from baseline: -8.46 mg/dL
  Fasting total cholesterol, mean change from baseline: -12 mg/dL
  Fasting triglycerides, mean change from baseline: -2 mg/dL
  HOMA-IR, mean change from baseline: −0.71
  HbA1c, mean change from baseline: −0.08 % Hb
[2]; Week 12, All CVC, EFV
  Fasting HDL, mean change from baseline: -2.09 mg/dL
  Fasting LDL, mean change from baseline: -11.44 mg/dL
  Fasting total cholesterol, mean change from baseline: -17 mg/dL
  Fasting triglycerides, mean change from baseline: -15 mg/dL
  HOMA-IR, mean change from baseline: −0.56
  HbA1c, mean change from baseline: −0.06 % Hb
[2]; Week 12, CVC 100 mg
  Fasting HDL, mean change from baseline: -2.96 mg/dL
  Fasting LDL, mean change from baseline: -11.20 mg/dL
  Fasting total cholesterol, mean change from baseline: -17 mg/dL
  Fasting triglycerides, mean change from baseline: -16 mg/dL
  HOMA-IR, mean change from baseline: −0.59
  HbA1c, mean change from baseline: −0.04 % Hb
[2]; Week 12, CVC 200 mg
  Fasting HDL, mean change from baseline: -1.22 mg/dL
  Fasting LDL, mean change from baseline: -11.69 mg/dL
  Fasting total cholesterol, mean change from baseline: -16 mg/dL
  Fasting triglycerides, mean change from baseline: -13 mg/dL
  HOMA-IR, mean change from baseline: −0.53
  HbA1c, mean change from baseline: −0.08 % Hb
[2]; Week 24, All CVC, EFV
  Fasting HDL, mean change from baseline: -1.45 mg/dL
  Fasting LDL, mean change from baseline: -8.64 mg/dL
  Fasting total cholesterol, mean change from baseline: -13 mg/dL
  Fasting triglycerides, mean change from baseline: -15 mg/dL
  HOMA-IR, mean change from baseline: −0.68
  HbA1c, mean change from baseline: 0.06 % Hb
[2]; Week 24, CVC 100 mg
  Fasting HDL, mean change from baseline: -2.15 mg/dL
  Fasting LDL, mean change from baseline: -10.21 mg/dL
  Fasting total cholesterol, mean change from baseline: -14 mg/dL
  Fasting triglycerides, mean change from baseline: -8 mg/dL
  HOMA-IR, mean change from baseline: −1.42
  HbA1c, mean change from baseline: 0.06 % Hb
[2]; Week 24, CVC 200 mg
  Fasting HDL, mean change from baseline: -0.71 mg/dL
  Fasting LDL, mean change from baseline: -6.93 mg/dL
  Fasting total cholesterol, mean change from baseline: -12 mg/dL
  Fasting triglycerides, mean change from baseline: -23 mg/dL
  HOMA-IR, mean change from baseline: 0.15
  HbA1c, mean change from baseline: 0.06 % Hb
[2]; Week 48, All CVC, EFV
  Fasting HDL, mean change from baseline: -0.96 mg/dL
  Fasting LDL, mean change from baseline: -8.49 mg/dL
  Fasting total cholesterol, mean change from baseline: -12 mg/dL
  Fasting triglycerides, mean change from baseline: -12 mg/dL
  HOMA-IR, mean change from baseline: −0.76
  HbA1c, mean change from baseline: 0.10 % Hb
[2]; Week 48, CVC 100 mg
  Fasting HDL, mean change from baseline: -1.63 mg/dL
  Fasting LDL, mean change from baseline: -11.16 mg/dL
  Fasting total cholesterol, mean change from baseline: -14 mg/dL
  Fasting triglycerides, mean change from baseline: -9 mg/dL
  HOMA-IR, mean change from baseline: −1.56
  HbA1c, mean change from baseline: 0.09 % Hb
[2]; Week 48, CVC 200 mg
  Fasting HDL, mean change from baseline: -0.21 mg/dL
  Fasting LDL, mean change from baseline: -5.20 mg/dL
  Fasting total cholesterol, mean change from baseline: -9 mg/dL
  Fasting triglycerides, mean change from baseline: -16 mg/dL
  HOMA-IR, mean change from baseline: 0.17
  HbA1c, mean change from baseline: 0.10 % Hb
[2]; through Week 48
  Change in fasting cholesterol (total, LDL, HDL) during treatment: A decrease was observed
[3]; Group 1a: 30 mg/kg/day
  Reduction of collagen type 1 protein levels: 30%
  Reduction of α-SMA: 17%
[3]; Group 1a: 30 mg/kg/day concurrently with TAA
  Reduction of fibrosis (collagen morphometry): 49%
[3]; Group 1b: 100 mg/kg/day
  Reduction of collagen type 1 protein levels: 12%
  Reduction of α-SMA: 22%
[3]; Group 1b: 100 mg/kg/day concurrently with TAA
  Reduction of fibrosis (collagen morphometry): 38%
[3]; Group 2a: 30 mg/kg/day, weeks 4-8 (emerging fibrosis)
  Reduction in collagen: 36%
[3]; Group 3: weeks 8-12, cirrhosis present
  Effect on fibrogenic gene expression or fibrosis: no significant effect
[4]
  Ly6C+ monocyte-derived macrophages in liver (% of liver leukocytes): 0.95%±0.14
